Data as given in patent publication US8501166B2, “Pyrimidinyl indole compounds” (Hutchison Medipharma Limited, priority 2010, dated 2013).
Structures can show the parent of a compound that is named as a salt. Where two headings read alike, the source gives them in different places.

Experiments:
Skov3-luc cells = assay: Cell viability test, combination study, Skov3-luc; type: cell-based; details: Homo sapiens, 72 h, read-out: Ave. Inhibition rate
Description: To evaluate biological activity of a compound in vitro, the cell viability test is applied, in which, IKKβ receptor plays an important role in cell survival and proliferation. Once the IKKβ pathway is blocked by inhibitors, a cell can go through apoptosis or death. The cell viability test provides information on cell survival after treatment with IKK inhibitors.
BxPC-3 cells (ATCC #CRL-1687; human pancreatic cancer cell line) are grown in Roswell Park Memorial Institute (RPMI) 1640 media (Gibco #A10491-01) supplemented with 10% fetal bovine serum (FBS) (Gibco #10099-141). Skov3-luc cells (ATCC, human ovarian carcinoma cell line) are grown in McCoy's 5a medium (Gibco#16600) supplemented with 10% FBS (Gibco#10099-141). For compound testing, BxPc-3 and Skov3-Luc cells are seeded at 2000 and 5000 cells/well respectively in 100 μL of corresponding media specified above for each cell line in 96-well plates 20 h prior to treatment. Cells are treated with a test compound at eight different concentrations in the presence of 0.5% DMSO for 72 h. Cell death in each well is determined by the addition of 20 μL of the One Solution Reagent (CELLTITER 96® AQueous One Solution Cell Proliferation Assay, Promega #G3580). After 2-4 h of incubation at 37° C., optical densities at 492 nm are measured with a microplate reader Inhibition of cell viability is determined by comparison to the control cells treated in the absence of a test compound.
For the combination study of the compound with other antitumor agents, BxPc-3 and Skov3-Luc cells are seeded at 2000 and 5000 cells/well respectively in 100 μL corresponding media specified above for each cell line in 96-well plates 20 h prior to the treatment. […] Cell death in each well is determined by the addition of 20 μL of the One Solution Reagent (CELLTITER 96® AQueous One Solution Cell Proliferation Assay, Promega #G3580). After 2-4 h of incubation at 37° C., optical densities at 492 nm are measured with a microplate reader Inhibition of cell viability is determined by comparison to the control cells treated in the absence of a test compound. […]

[1] = tested on: SKOV-3x-FF-luci human ovarian cancer xenograft; assay: Antitumor effect in SKOV-3x-FF-luci xenograft with vincristine (VCR); type: in vivo, Balb/c nu/nu mice
Description: In order to expand the anti-tumor spectrum, more combination testing is explored. Based on in vitro synergistic effect of Example 1 and VCR, the compound is tested for its anti-tumor effects in SKOV-3x-FF-luci xenograft in the presence/absence of VCR. The SKOV-3x-FF-luci human ovarian cancer line (ATCC) is cultured in McCoy's 5a medium containing 10% FCS. Female Balb/c nu/nu mice (6-7 weeks old) are peritoneally injected with 0.2 mL of cell suspension containing 2×10^6 cells. Mice are divided into nine groups six days after cell implantation. The test compound is orally administered twice a day at 60 mg/kg for 20 consecutive days or at 90 mg/kg with a 2 days on and 5 days off dosing schedule. VCR at 1 or 0.3 mg/kg is administered via tail vein injection, once a week. In the combination group, VCR is given 1 h after the administration of the test compound. Mice from the control group are administered with the oral vehicle (10% Acacia at pH2.1) and intraperitoneally injected with saline. At the end of the treatment, all mice are euthanized with CO2 and tumors in the peritoneal cavity, diaphragmatic muscle, mesenterium, liver, spleen, and ovaries are harvested with surgery scissors and weighted. […] In the combination group, tumor growth is inhibited by 76% and 74%. Compared with monotherapy, statistical significance is found between combination and monotherapy.

[2] = tested on: SKOV-3x-FF-luci human ovarian cancer xenograft; assay: Anti-tumor effects in SKOV-3x-FF-luci xenograft (alternate protocol, 23 days); type: in vivo, Balb/c nu/nu mice
Description: Alternately, the test compound is evaluated for its anti-tumor effects on tumor growth of human ovarian cancer SKOV-3x-FF-luci in nude mice. SKOV-3x-FF-luci cell line (ATCC) is cultured in McCoy's 5a medium containing 10% fetal calf serum. Female Balb/c nu/nu mice (6-7 weeks old) are injected peritoneally with 0.2 mL of cell suspension containing 2×10^6 cells. Mice are randomized and divided into four groups six days after cell implantation. The test compound at doses of 30 and 100 mg/kg is orally administered to animals twice a day for 23 consecutive days. Mice in the control group are administered the vehicle (10% Acacia), twice a day. Mice in the positive control group are injected with Cisplatin (4 mg/kg) via the tail vein once a week. At the end of the treatment, all mice are euthanized with CO2 and tumor nodules in the peritoneal cavity, diaphragmatic muscle, mesenterium, liver, spleen, and ovaries are dissected, harvested, and combined for the measurement of weight. Inhibition rate: IR %=(tumor weight in control−tumor weight in drug treated)/tumor weight in control×100%).

DNBS-induced colitis = DNBS-induced colitis in rat; type: in vivo, Wistar rats; details: 3, 10, 30 and 60 mg/kg oral, six days
Description: A compound is tested in DNBS-induced colitis model in rat essentially as described in a method reported in the literature (Gut. 2002; 50(3):440-1). Briefly, Wistar rats are used in the experiments. Following the induction of distal colitis by intra-colonic instillation of DNBS, the test compound at doses of 3, 10, 30, 60 mg/kg (bid) is administered to rats orally for six days. The negative control group is treated with the vehicle alone without DNBS instillation. The vehicle-control group rats are DNBS-induced and treated with vehicle. In the positive control group, sulfasalazine is orally administered to the rats at 300 mg/kg daily for six consecutive days. Animals are euthanized 24 h after the final treatment. Colon-to-body weight ratio and colonic damage scores are calculated for each animal. Vehicle treatment of rats results in a progressive worsening of clinical symptoms, achieving a maximum colonic damage score of 6.1±0.6 and colon-to-body weight ratio-colon length of 0.96±0.10 on day 7 after instillation. In this DNBS-induced inflammatory bowel disease model, rats treated with Example 2 at doses of 3, 10, 30 and 60 mg/kg show a marked reduction in colonic damage scores, colon-to-body weight-to-colon length ratio with more than 30% reduction.

SMILES | inhibition at 12.5 µM (Skov3-luc cells; Example 1 12.5 μM alone) [%] | inhibition at 12.5 µM (Skov3-luc cells; Vincristine 0.25 μM + Example 1 12.5 μM) [%] | tumor growth inhibition ([1]; Example 1 alone 60 mg/kg oral twice a day, 20 days) [%] | tumor growth inhibition ([1]; Example 1 alone 90 mg/kg, 2 days on and 5 days off) [%] | tumor growth inhibition ([1]; combination group: Example 1 60 mg/kg + VCR) [%] | tumor growth inhibition ([1]; combination group: Example 1 90 mg/kg + VCR) [%] | tumor inhibition rate (IR) ([2]; 30 mg/kg oral twice a day) [%] | tumor inhibition rate (IR) ([2]; 100 mg/kg oral twice a day) [%] | reduction in colonic damage scores, colon-to-body weight-to-colon length ratio (DNBS-induced colitis)
O=C(NC1CC1)c1cccc2[nH]c(-c3nc(N[C@@H]4CCC[C@@H]4O)ncc3Cl)cc12 [Example 1, 2-{5-Chloro-2-[(1R,2S)-2-hydroxycyclopentylamino]pyrimidin-4-yl}-N-cyclopropyl-1H-indole-4-carboxamide hydrochloride] | 21.8 | 82.3 | 42 | 36 | 76 | 74 |  |  | 
Cl.O=C(NC1CC1)c1cccc2[nH]c(-c3nc(N[C@@H]4CCC[C@H]4O)ncc3Cl)cc12 [Example 2, 2-{5-Chloro-2-[(1R,2R)-2-hydroxycyclopentylamino]pyrimidin-4-yl}-N-cyclopropyl-1H-indole-4-carboxamide hydrochloride] |  |  |  |  |  |  | 59.3 | 93.9 | more than 30%
